Assay results published in ChEMBL document CHEMBL4649996, “Selective inhibition of BET bromodomains” (Nature, 2010).

What was measured:
Conditions in all cases: Compound concentration 10.0 uM, Protein concentration 2.0 uM
[1] = biological target: Histone acetyltransferase KAT2B (Homo sapiens) (UniProt Q92831)
[2] = biological target: Nuclear body protein SP140-like protein (Homo sapiens) (UniProt Q9H930)
[3] = biological target: Bromodomain-containing protein 2 (Homo sapiens) (UniProt P25440)
[4] = biological target: Bromodomain-containing protein 2 (Homo sapiens) (UniProt P25440); remark: listed apart in the source

Sequence of Bromodomain-containing protein 2 (Homo sapiens) (P25440 whole entry, looked up): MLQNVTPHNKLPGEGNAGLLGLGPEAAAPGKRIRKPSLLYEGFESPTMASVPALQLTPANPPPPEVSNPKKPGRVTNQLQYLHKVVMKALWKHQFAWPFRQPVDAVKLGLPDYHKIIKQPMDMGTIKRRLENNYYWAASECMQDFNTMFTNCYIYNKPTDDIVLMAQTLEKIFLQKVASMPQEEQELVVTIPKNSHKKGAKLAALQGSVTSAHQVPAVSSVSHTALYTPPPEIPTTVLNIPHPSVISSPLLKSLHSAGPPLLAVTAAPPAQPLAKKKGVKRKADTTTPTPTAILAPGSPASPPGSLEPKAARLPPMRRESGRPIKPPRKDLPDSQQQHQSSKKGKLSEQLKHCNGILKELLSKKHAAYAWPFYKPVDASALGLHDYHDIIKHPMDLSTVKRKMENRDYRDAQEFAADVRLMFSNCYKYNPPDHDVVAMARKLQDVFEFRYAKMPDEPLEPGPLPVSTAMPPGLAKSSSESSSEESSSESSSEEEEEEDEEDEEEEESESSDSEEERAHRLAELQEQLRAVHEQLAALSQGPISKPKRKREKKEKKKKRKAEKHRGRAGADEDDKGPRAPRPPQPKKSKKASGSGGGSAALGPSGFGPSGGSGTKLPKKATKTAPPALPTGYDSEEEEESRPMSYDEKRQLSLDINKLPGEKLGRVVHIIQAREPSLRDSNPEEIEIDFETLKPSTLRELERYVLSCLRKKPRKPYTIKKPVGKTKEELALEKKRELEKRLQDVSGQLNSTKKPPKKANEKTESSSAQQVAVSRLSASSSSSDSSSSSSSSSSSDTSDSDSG
Sequence of Nuclear body protein SP140-like protein (Homo sapiens) (Q9H930 whole entry): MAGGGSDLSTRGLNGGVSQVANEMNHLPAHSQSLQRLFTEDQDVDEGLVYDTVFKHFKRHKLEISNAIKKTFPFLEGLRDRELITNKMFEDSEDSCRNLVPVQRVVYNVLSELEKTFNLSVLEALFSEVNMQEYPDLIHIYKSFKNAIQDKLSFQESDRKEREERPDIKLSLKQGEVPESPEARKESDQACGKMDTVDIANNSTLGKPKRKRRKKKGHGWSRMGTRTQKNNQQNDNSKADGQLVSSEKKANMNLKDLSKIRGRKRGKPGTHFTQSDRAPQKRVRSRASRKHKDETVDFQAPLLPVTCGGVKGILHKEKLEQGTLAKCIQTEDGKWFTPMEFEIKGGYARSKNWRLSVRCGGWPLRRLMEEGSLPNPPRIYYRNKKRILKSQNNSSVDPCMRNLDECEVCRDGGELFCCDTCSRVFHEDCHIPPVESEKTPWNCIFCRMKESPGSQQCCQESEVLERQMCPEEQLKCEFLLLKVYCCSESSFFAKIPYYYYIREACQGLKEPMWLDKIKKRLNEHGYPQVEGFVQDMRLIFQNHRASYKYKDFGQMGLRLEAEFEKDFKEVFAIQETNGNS
Sequence of Histone acetyltransferase KAT2B (Homo sapiens) (Q92831 whole entry, looked up): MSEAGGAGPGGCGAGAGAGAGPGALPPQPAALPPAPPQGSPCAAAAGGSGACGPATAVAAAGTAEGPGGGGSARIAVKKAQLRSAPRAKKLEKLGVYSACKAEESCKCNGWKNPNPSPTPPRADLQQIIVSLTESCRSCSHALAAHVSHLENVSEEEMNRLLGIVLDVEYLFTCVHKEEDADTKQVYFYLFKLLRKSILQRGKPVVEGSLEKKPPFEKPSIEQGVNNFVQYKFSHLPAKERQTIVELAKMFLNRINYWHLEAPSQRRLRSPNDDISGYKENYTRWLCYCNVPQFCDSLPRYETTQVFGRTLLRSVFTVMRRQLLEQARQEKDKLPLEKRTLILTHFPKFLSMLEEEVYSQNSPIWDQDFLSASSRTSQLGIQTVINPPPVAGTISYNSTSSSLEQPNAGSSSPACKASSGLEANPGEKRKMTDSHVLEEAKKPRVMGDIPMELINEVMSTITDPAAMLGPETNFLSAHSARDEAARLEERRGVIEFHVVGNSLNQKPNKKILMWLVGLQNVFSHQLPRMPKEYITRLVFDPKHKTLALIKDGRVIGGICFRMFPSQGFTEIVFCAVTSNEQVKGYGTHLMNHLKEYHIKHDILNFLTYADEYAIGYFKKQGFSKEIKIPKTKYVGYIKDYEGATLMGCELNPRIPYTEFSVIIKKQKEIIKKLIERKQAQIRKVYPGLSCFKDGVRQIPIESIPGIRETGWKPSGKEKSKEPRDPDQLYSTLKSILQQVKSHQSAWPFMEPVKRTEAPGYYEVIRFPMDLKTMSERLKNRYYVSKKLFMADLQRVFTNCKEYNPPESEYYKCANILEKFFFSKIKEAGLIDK

`Cc1sc2c(c1C)C(c1ccc(Cl)cc1)=N[C@@H](CC(=O)OC(C)(C)C)c1nnc(C)n1-2` was tested, and the ΔTm [1] was 0.7 °C, the ΔTm [2] was -0.07 °C and the ΔTm [3] was 8.16 °C. It also gave a ΔTm [4] of 5.58 °C.
